# From patent US8449898B2 (priority 2007, dated 2013)
# Read-outs that look alike come from different tables or passages of the source.
# Tests used:
# [1] = system: Phytophthora infestans (the causal agent of tomato late blight); assay: whole plant or invertebrate; type: in vivo; details: for TLB Obsd (disease control rating): Table B; for TLB Obsd (observed effect, tomato late blight): component (b) alone
# [2] = system: Pseudoperonospora cubensis (the causal agent of cucumber downy mildew); assay: Test B: cucumber downy mildew, preventive spray on cucumber seedlings; type: in vivo; details: for CDM Obsd (disease control rating): Table B
# [3] = Pseudoperonospora cubensis, component (b) alone 0.4 ppm (Compound 1 0 ppm), read-out: CDM Obsd
# [4] = Pseudoperonospora cubensis, component (b) alone 2 ppm (Compound 1 0 ppm), read-out: CDM Obsd
# [5] = Pseudoperonospora cubensis, component (b) alone 10 ppm (Compound 1 0 ppm), read-out: CDM Obsd
# [6] = Pseudoperonospora cubensis, component (b) alone 40 ppm (Compound 1 0 ppm), read-out: CDM Obsd
structure (smiles),measurement,setting,value
Cc1ccc(C(C)NC(=O)[C@@H](NC(=O)OC(C)C)C(C)C)cc1 (stereo partly drawn) [iprovalicarb],TLB Obsd (disease control rating),[1]; component (b) alone 0.08 ppm,0%
same,TLB Obsd (disease control rating),[1]; component (b) alone 0.4 ppm,9%
same,TLB Obsd (disease control rating),[1]; component (b) alone 2 ppm,39%
same,TLB Obsd (disease control rating),[1]; component (b) alone 10 ppm,99%
same,TLB Obsd (disease control rating),[1]; component (b) alone 40 ppm,100%
same,"TLB Obsd (observed effect, tomato late blight)",[1]; 0.08 ppm,0
same,"TLB Obsd (observed effect, tomato late blight)",[1]; 0.4 ppm,21
same,"TLB Obsd (observed effect, tomato late blight)",[1]; 2 ppm,74
same,"TLB Obsd (observed effect, tomato late blight)",[1]; 10 ppm,98
same,"TLB Obsd (observed effect, tomato late blight)",[1]; 40 ppm,100
same,CDM Obsd (disease control rating),[2]; component (b) alone 0.08 ppm,47%
same,CDM Obsd (disease control rating),[2]; component (b) alone 0.4 ppm,57%
same,CDM Obsd (disease control rating),[2]; component (b) alone 2 ppm,77%
same,CDM Obsd (disease control rating),[2]; component (b) alone 10 ppm,100%
same,CDM Obsd (disease control rating),[2]; component (b) alone 40 ppm,100%
same,CDM Obsd,[2]; component (b) alone 0.08 ppm (Compound 1 0 ppm),26%
same,CDM Obsd,[2]; component (b) alone 0.4 ppm (Compound 1 0 ppm),26%
same,CDM Obsd,[2]; component (b) alone 2 ppm (Compound 1 0 ppm),26%
same,CDM Obsd,[2]; component (b) alone 10 ppm (Compound 1 0 ppm),88%
same,CDM Obsd,[2]; component (b) alone 40 ppm (Compound 1 0 ppm),100%
same,"CDM Obsd (observed effect, cucumber downy mildew)","[2]; component (b) alone, 0.08 ppm",0
same,"CDM Obsd (observed effect, cucumber downy mildew)","[2]; component (b) alone, 0.4 ppm",0
same,"CDM Obsd (observed effect, cucumber downy mildew)","[2]; component (b) alone, 2 ppm",0
same,"CDM Obsd (observed effect, cucumber downy mildew)","[2]; component (b) alone, 10 ppm",99
same,"CDM Obsd (observed effect, cucumber downy mildew)","[2]; component (b) alone, 40 ppm",100
CO/N=C(/C(=O)OC)c1ccccc1COc1ccccc1C [kresoxim-methyl],pest or weed control at 0.4 ppm,"[1]; Phytophthora infestans, read-out: TLB Obsd (disease control rating), Table C, component (b) alone 0.4 ppm",9%
same,pest or weed control at 2 ppm,"[1]; Phytophthora infestans, read-out: TLB Obsd (disease control rating), Table C, component (b) alone 2 ppm",33%
same,pest or weed control at 10 ppm,"[1]; Phytophthora infestans, read-out: TLB Obsd (disease control rating), Table C, component (b) alone 10 ppm",80%
same,pest or weed control at 40 ppm,"[1]; Phytophthora infestans, read-out: TLB Obsd (disease control rating), Table C, component (b) alone 40 ppm",99%
same,pest or weed control at 200 ppm,"[1]; Phytophthora infestans, read-out: TLB Obsd (disease control rating), Table C, component (b) alone 200 ppm",99%
same,pest or weed control at 0.04 ppm,"[1]; Phytophthora infestans, read-out: TLB Obsd, component (b) alone, 0.04 ppm",8%
same,pest or weed control at 2 ppm,"[1]; Phytophthora infestans, read-out: TLB Obsd, component (b) alone, 2 ppm",32%
same,pest or weed control at 10 ppm,"[1]; Phytophthora infestans, read-out: TLB Obsd, component (b) alone, 10 ppm",86%
same,pest or weed control at 40 ppm,"[1]; Phytophthora infestans, read-out: TLB Obsd, component (b) alone, 40 ppm",96%
same,pest or weed control at 200 ppm,"[1]; Phytophthora infestans, read-out: TLB Obsd, component (b) alone, 200 ppm",100%
same,pest or weed control at 0.4 ppm,"[2]; Pseudoperonospora cubensis, Table C, component (b) alone 0.4 ppm, read-out: CDM Obsd (disease control rating)",47%
same,pest or weed control at 2 ppm,"[2]; Pseudoperonospora cubensis, Table C, component (b) alone 2 ppm, read-out: CDM Obsd (disease control rating)",47%
same,pest or weed control at 10 ppm,"[2]; Pseudoperonospora cubensis, Table C, component (b) alone 10 ppm, read-out: CDM Obsd (disease control rating)",53%
same,pest or weed control at 40 ppm,"[2]; Pseudoperonospora cubensis, Table C, component (b) alone 40 ppm, read-out: CDM Obsd (disease control rating)",57%
same,pest or weed control at 200 ppm,"[2]; Pseudoperonospora cubensis, Table C, component (b) alone 200 ppm, read-out: CDM Obsd (disease control rating)",100%
same,pest or weed control at 0.4 µg/mL,[2]; [3],47%
same,pest or weed control at 2 µg/mL,[2]; [4],47%
same,pest or weed control at 10 µg/mL,[2]; [5],47%
same,pest or weed control at 40 µg/mL,[2]; [6],99%
same,pest or weed control at 200 µg/mL,"[2]; Pseudoperonospora cubensis, component (b) alone 200 ppm (Compound 1 0 ppm), read-out: CDM Obsd",100%
same,pest or weed control at 0.04 ppm,"[2]; Pseudoperonospora cubensis, component (b) alone, 0.04 ppm, read-out: CDM Obsd",9%
same,pest or weed control at 2 ppm,"[2]; Pseudoperonospora cubensis, component (b) alone, 2 ppm, read-out: CDM Obsd",9%
same,pest or weed control at 10 ppm,"[2]; Pseudoperonospora cubensis, component (b) alone, 10 ppm, read-out: CDM Obsd",30%
same,pest or weed control at 40 ppm,"[2]; Pseudoperonospora cubensis, component (b) alone, 40 ppm, read-out: CDM Obsd",37%
same,pest or weed control at 200 ppm,"[2]; Pseudoperonospora cubensis, component (b) alone, 200 ppm, read-out: CDM Obsd",100%
COC(=O)N(OC)c1ccccc1COc1ccn(-c2ccc(Cl)cc2)n1 [pyraclostrobin],pest or weed control at 0.08 ppm,"[1]; Phytophthora infestans, read-out: TLB Obsd (observed effect, tomato late blight), component (b) alone, 0.08 ppm",15%
same,pest or weed control at 0.4 ppm,"[1]; Phytophthora infestans, read-out: TLB Obsd (observed effect, tomato late blight), component (b) alone, 0.4 ppm",35%
same,pest or weed control at 2 ppm,"[1]; Phytophthora infestans, read-out: TLB Obsd (observed effect, tomato late blight), component (b) alone, 2 ppm",63%
same,pest or weed control at 10 ppm,"[1]; Phytophthora infestans, read-out: TLB Obsd (observed effect, tomato late blight), component (b) alone, 10 ppm",90%
same,pest or weed control at 40 ppm,"[1]; Phytophthora infestans, read-out: TLB Obsd (observed effect, tomato late blight), component (b) alone, 40 ppm",94%
same,pest or weed control at 0.08 ppm,"[1]; Phytophthora infestans, read-out: TLB Obsd, Table D, component (b) alone at 0.08 ppm",26%
same,pest or weed control at 0.4 ppm,"[1]; Phytophthora infestans, read-out: TLB Obsd, Table D, component (b) alone at 0.4 ppm",40%
same,pest or weed control at 2 ppm,"[1]; Phytophthora infestans, read-out: TLB Obsd, Table D, component (b) alone at 2 ppm",78%
same,pest or weed control at 10 ppm,"[1]; Phytophthora infestans, read-out: TLB Obsd, Table D, component (b) alone at 10 ppm",85%
same,pest or weed control at 40 ppm,"[1]; Phytophthora infestans, read-out: TLB Obsd, Table D, component (b) alone at 40 ppm",95%
same,pest or weed control at 0.08 ppm,"[2]; Pseudoperonospora cubensis, Table D, component (b) alone at 0.08 ppm, read-out: CDM Obsd",47%
same,pest or weed control at 0.4 ppm,"[2]; Pseudoperonospora cubensis, Table D, component (b) alone at 0.4 ppm, read-out: CDM Obsd",47%
same,pest or weed control at 2 ppm,"[2]; Pseudoperonospora cubensis, Table D, component (b) alone at 2 ppm, read-out: CDM Obsd",98%
same,pest or weed control at 10 ppm,"[2]; Pseudoperonospora cubensis, Table D, component (b) alone at 10 ppm, read-out: CDM Obsd",100%
same,pest or weed control at 40 ppm,"[2]; Pseudoperonospora cubensis, Table D, component (b) alone at 40 ppm, read-out: CDM Obsd",100%
same,pest or weed control at 0.08 µg/mL,"[2]; Pseudoperonospora cubensis, component (b) alone 0.08 ppm (Compound 1 0 ppm), read-out: CDM Obsd",47%
same,pest or weed control at 0.4 µg/mL,[2]; [3],47%
same,pest or weed control at 2 µg/mL,[2]; [4],57%
same,pest or weed control at 10 µg/mL,[2]; [5],100%
same,pest or weed control at 40 µg/mL,[2]; [6],100%
same,pest or weed control at 0.08 ppm,"[2]; Pseudoperonospora cubensis, component (b) alone, 0.08 ppm, read-out: CDM Obsd (observed effect, cucumber downy mildew)",0%
same,pest or weed control at 0.4 ppm,"[2]; Pseudoperonospora cubensis, component (b) alone, 0.4 ppm, read-out: CDM Obsd (observed effect, cucumber downy mildew)",0%
same,pest or weed control at 2 ppm,"[2]; Pseudoperonospora cubensis, component (b) alone, 2 ppm, read-out: CDM Obsd (observed effect, cucumber downy mildew)",68%
same,pest or weed control at 10 ppm,"[2]; Pseudoperonospora cubensis, component (b) alone, 10 ppm, read-out: CDM Obsd (observed effect, cucumber downy mildew)",100%
same,pest or weed control at 40 ppm,"[2]; Pseudoperonospora cubensis, component (b) alone, 40 ppm, read-out: CDM Obsd (observed effect, cucumber downy mildew)",100%
